Measured values published in publication PMC9241644, “Evaluation of Novel Quorum Sensing Inhibitors Targeting Auto-Inducer 2 (AI-2) for the Control of Avian Pathogenic Escherichia coli Infections in Chickens” (Microbiology Spectrum, 2022).

System: Rif^R APEC O78
Experiment: Efficacy of QSIs in APEC-infected chickens (oral gavage pilot)
Format: in vivo, Escherichia coli
Settings: Table S1, oral gavage pilot
Method: The chicken experiment was carried out using 1-day-old broiler chickens (Mayer Hatchery, OH, USA). Feed and water were given ad libitum. Chickens (n = 6/group) were administered with the QSIs (QSI-1, QSI-2, QSI-5 − 8, QSI-10, ChemBridge, San Diego, CA); previously designated as C1, C2, C5, C6, C7, C8, C10 ([17]) using oral gavage. These compounds were selected based on their high efficacy in in vitro studies and the doses correspond to 30X of the initial in vitro screening concentration ([17]). The QSIs were suspended in dimethyl sulfoxide (DMSO; used as a vehicle) and administered once daily for 5 successive days (starting from day 4 to day 8). The first dose was administered 1 day before the challenge, followed by the second dose on the challenge day (2 h before challenge), followed by three additional doses on subsequent days. Feeders were removed 1 h prior to the treatment and replaced 1 h after the treatment. Chickens were challenged subcutaneously (s/c) on day 5 with Rif^R APEC O78 (1 × 10^7 CFU/bird) in PBS using syringe (27 gauge, 0.5 in.). The challenge dose, which […], was chosen based on preliminary experiments conducted with different infection routes (subcutaneous s/c, intra-tracheal and intra-airsacs) and different doses (10^6, 10^7, and 10^8 CFU/chicken). […] Therefore, we selected this challenge dose and route for evaluation of QSIs in chickens ([34]). The positive (PC; infected with APEC O78 and DMSO treated) and negative (NC; non-infected and non-treated) control groups were included.
Chickens were monitored for clinical signs for 8 DPI. Any chickens moribund during this period were humanely euthanized and necropsied to determine bacterial load in the internal organs (liver, heart, lung, and kidney). Internal organs were aseptically collected, weighed and suspended in 1× PBS, the amount of PBS added was adjusted based on the organ size to make a suspension, the organ size and amount of PBS added were included in the final calculation of the CFU. The samples were homogenized, serially diluted 10-fold, plated on MacConkey agar (Remel, CA, USA) containing 50 μg/mL rifampicin, and incubated at 37°C for 24 h to determine the CFU/g. Pathological lesions severity in internal organs (pericarditis, perihepatitis, airsacculitis, and lung congestion) was scored as described previously ([21], [59]). At 8 DPI, the remaining chickens were humanely euthanized and necropsied, lesions were scored, and the APEC load was quantified in internal organs as described above.

Cc1ccc(CN2CCN(CCCc3ccccc3)CC2)cc1 [QSI-5]
Average lesion severity, Lung (lesion score, PC 1.25): 0.17
Average lesion severity, Liver (lesion score, PC 1.75): 0.33
Average lesion severity, Airsac (lesion score, PC 2.00): 0.17
Average lesion severity, Heart (lesion score, PC 2.25): 0.33
Mortality rate % (Nr.) (n = 6/group, 8 DPI, PC 66.6 (4/6)): 0%
Average APEC load, Liver (PC 5.95): 0.72 Log CFU/g of tissue
Average APEC load, Heart (PC 5.98): 0.58 Log CFU/g of tissue
Average APEC load, Kidney (PC 6.81): 0.67 Log CFU/g of tissue
Average APEC load, Lung (PC 6.83): 0.75 Log CFU/g of tissue
